This note sets out measurements from US20240199572A1, “COMPOUNDS, COMPOSITIONS, AND METHODS FOR TREATING TYPE 2 DIABETES AND DEMENTIA” (THE BOARD OF TRUSTEES OF THE UNIVERSITY OF ILLINOIS, priority 2021, published 2024).

The subject of one data set is ABCA1 mRNA. As to the kind of experiment: ABCA1 mRNA - HepG2 (qRT-PCR). The conditions noted are these: Homo sapiens; ABCA1 mRNA-HepG2 assay (Table 7). Format: cell-based, human. The text has this: qRT-PCR. For cell samples, treated cells were lysed with RLT plus lysis buffer (Qiagen). RNA was isolated with Qiagen RNEASY® Plus columns per manufacturer instructions, then reverse-transcribed to cDNA using […]® III Reverse Transcriptase (200 U/μL, Invitrogen) per supplier protocol. qPCR experiments were either performed with TAQMAN® gene expression master mix (Invitrogen) on a StepOne™ qPCR instrument or with […]® SYBR® Green SuperMix (Quanta Biosciences) on CFX Connect™ Real-Time PCR Detection System (BioRad), with fold-change quantified by ΔΔCt. For animal samples, 100 mg tissue was homogenized in 1 mL acid-guanidinium-phenol based reagent sold under the tradename TRIZOL® (Ambion), mixed vigorously in chloroform, and separated by centrifugation. Aqueous layer containing RNA was added to Qiagen RNEASY® Plus column; remaining stops were as described above for cell lysates.
A general note: Quantitative PCR measures a nucleic acid by following its amplification.

The test system of a further data set is ABCA1. The data set can be described thus: ABCA1 firefly reporter assay in CCF-001 cells. The data set is classed as cell-based. The conditions noted are these: ABCA1 firefly reporter assay in CCF-001 cells (Table 8). On the technique in general: In a reporter assay the amount or activity of a reporter protein is the signal.
Another data set concerns CD1 mice. As to the kind of experiment: CD1 mice, three daily p.o. treatments, LXR agonist adverse effects. Format: in vivo, mouse. The conditions noted are these: 10 mg/kg p.o., three days. From the text: Neutrophil Counts. […] After final dose, blood samples were run on an Advia 120 analyzer (Bayer) for neutrophil counts.

Consider `CCOC(=O)c1cccc(NC(=O)c2sc(Cl)cc2S(=O)(=O)N(C)c2ccc(OCC)nc2)c1` [CL2-159, Ethyl 3-(5-chloro-3-(N-(6-ethoxypyxidin-3-yl)-N-methylsulfamoyl)thiophene-2-carboxamido)benzoate], for which the figures for the EC50 in the data set on ABCA1 mRNA and in the data set on ABCA1 were more than 5000 nM and 5390 nM, respectively.

Regarding `CCOc1ccc(N(C)S(=O)(=O)c2cc(Cl)sc2C(=O)Nc2cccc(C(=O)OCCOC)c2)cc1OCC` [CL2-167, 2-Methoxyethyl 3-(5-chloro-3-(N-(3,4-diethoxyphenyl)-N-methylsulfamoyl)thiophene-2-carboxamido) benzoate], the EC50 (usually the midpoint of the concentration-response curve) in the data set on ABCA1 mRNA came out at 5000 nM; in the data set on ABCA1 it was 2190 nM.

Regarding `CCOc1ccc(N(C)S(=O)(=O)c2cc(Cl)sc2C(=O)Nc2cccc(C(=O)OCCOCCOC)c2)cc1OCC` [CL2-168, 2-(2-Methoxyethoxy) ethyl 3-(5-chloro-3-(N-(3,4-diethoxyphenyl)-N-methylsulfamoyl)thiophene-2-carboxamido) benzoate], the EC50 with ABCA1 mRNA was determined as 3600 nM; in the data set with ABCA1, 1360 nM.

Turning to `CCOC(=O)c1cccc(NC(=O)c2sc(Cl)cc2S(=O)(=O)N(C)c2ccc(N(C)C)cc2)c1` [CL2-181, Ethyl 3-(5-chloro-3-(N-(4-(dimethylamino)phenyl)-N-methylsulfamoyl)thiophene-2-carboxamido)benzoate], the EC50 came out at 5000 nM in the data set with ABCA1 mRNA and 4990 nM in the data set on ABCA1.

Turning to `CCOC(=O)c1cccc(NC(=O)c2sc(Cl)cc2S(=O)(=O)N(C)c2cnc(OCC)c(F)c2)c1` [CL2-184, Ethyl 3-(5-chloro-3-(N-(6-ethoxy-5-fluoropyridin-3-yl)-N-methylsulfamoyl)thiophene-2-carboxamido)benzoate], the EC50 in the data set with ABCA1 mRNA worked out at 4500 nM; in the data set on ABCA1, 4950 nM.

Consider `CCOC(=O)c1cc(Cl)cc(NC(=O)c2sc(Cl)cc2S(=O)(=O)N(C)c2ccc(OCC)c(OCC)c2)c1` [CL2-187, Ethyl 3-chloro-5-(5-chloro-3-(N-(3,4-diethoxyphenyl)-N-methylsulfamoyl)thiophene-2-carboxamido) benzoate], for which the EC50 came to 810 nM with ABCA1 mRNA and 247 nM with ABCA1.

With `CCOC(=O)c1cc(N)cc(NC(=O)c2sc(Cl)cc2S(=O)(=O)N(C)c2ccc(OCC)c(OCC)c2)c1` [CL2-191, Ethyl 3-amino-5-(5-chloro-3-(N-(3,4-diethoxyphenyl)-N-methylsulfamoyl)thiophene-2-carboxamido)benzoate], the EC50 in the data set on ABCA1 mRNA is more than 5000 nM; in the data set on ABCA1, 8420 nM.

With `CCOC(=O)c1cc(Cl)cc(NC(=O)c2sc(Cl)cc2S(=O)(=O)N(C)c2ccc(OC)c(OC)c2)c1` [CL3-9, Ethyl 3-chloro-5-(5-chloro-3-(N-(3,4-dimethoxyphenyl)-N-methylsulfamoyl)thiophene-2-carboxamido)benzoate], the 50% effective concentration (EC50) turned out to be 1200 nM in the data set with ABCA1 mRNA and 530 nM in the data set with ABCA1.

As for `CCOc1ccc(N(C)S(=O)(=O)c2cc(Cl)sc2C(=O)Nc2cc(Cl)cc(C(=O)OC)c2)cc1OC` [CL3-10, Methyl 3-chloro-5-(5-chloro-3-(N-(4-ethoxy-3-methoxyphenyl)-N-methylsulfamoyl)thiophene-2-carboxamido)benzoate], the EC50 stood at 1100 nM in the data set with ABCA1 mRNA and 339 nM in the data set on ABCA1.

Consider `CCOc1ccc(N(C)S(=O)(=O)c2cc(Cl)sc2C(=O)Nc2cc(Cl)cc(C(=O)OCCOC)c2)cc1OC` [CL3-11, 2-Methoxyethyl 3-chloro-5-(5-chloro-3-(N-(4-ethoxy-3-methoxyphenyl)-N-methylsulfamoyl)thiophene-2-carboxamido)benzoate], for which the EC50 came to 420 nM with ABCA1 mRNA and 66 nM with ABCA1.

Consider `CCOc1ccc(N(C)S(=O)(=O)c2cc(Cl)sc2C(=O)Nc2cc(Cl)cc(C(=O)OCCOCCOC)c2)cc1OC` [CL3-12, 2-(2-Methoxyethoxy) ethyl 3-chloro-5-(5-chloro-3-(N-(4-ethoxy-3-methoxyphenyl)-N-methylsulfamoyl)thiophene-2-carboxamido)benzoate], for which the EC50 in the data set with ABCA1 mRNA came to 420 nM; in the data set on ABCA1, 138 nM.

On to `O=S(=O)(c1ccccc1)N(CC(F)(F)F)c1ccc(C(O)(C(F)(F)F)C(F)(F)F)cc1` [Compound T0901317, reference compound], for which, in the data set on CD1 mice, the Circulating neutrophil levels entry is reported as “reduced” and the “Plasma TG” value is “increased”.

Take `CCOC(=O)c1cc(F)cc(NC(=O)c2sc(Cl)cc2S(=O)(=O)N(C)c2ccc(OCC)c(OC)c2)c1` [GR1-053, Ethyl 3-(5-chloro-3-(N-(4-ethoxy-3-methoxyphenyl)-N-methylsulfamoyl)thiophene-2-carboxamido)-5-fluorobenzoate]: the EC50 was determined as 240 nM with ABCA1 mRNA and 29 nM in the data set on ABCA1.

For `CCOc1ccc(N(C)S(=O)(=O)c2cc(Cl)sc2C(=O)Nc2cccc(C(=O)OC)c2)cc1` [KB7-123, Methyl 3-(5-chloro-3-(N-(4-ethoxyphenyl)-N-methylsulfamoyl)thiophene-2-carboxamido)benzoate], the EC50 was determined as 3300 nM with ABCA1 mRNA and 1490 nM in the data set on ABCA1.
